Reference: publication PMC10932281, “A Combination of β-Aescin and Newly Synthesized Alkylamidobetaines as Modern Components Eradicating the Biofilms of Multidrug-Resistant Clinical Strains of Candida glabrata” (International Journal of Molecular Sciences, 2024)
Converted amounts (≈) assume the structure as drawn. Where two headings read alike, the source gives them in different places.

Legend:
[1] = Krafft temperature (TK); format: physicochemical
Experimental: CHNS elemental analysis was carried out by a Vario EL cube (Elementar, Germany) calibrated on acetanilide. Electrospray ionization mass spectroscopy (ESI-MS) (micrOTOF-Q instrument; Bruker Daltonics, Germany) allowed for the MS spectra to be obtained. The ESI-MS instrument was operated in the positive ion mode and calibrated with the Tunemix^TM mixture (Bruker Daltonics, Germany). The mass accuracy was better than 5 ppm. The obtained mass spectra were analyzed using DataAnalysis 3.4 software (Bruker Daltonics, Germany). ^1H NMR spectra were recorded on a Bruker AMX-500 spectrometer, using CDCl3 as a solvent. ^1H chemical shifts (in ppm) were calibrated to TMS as an internal reference. Melting points were determined using a Boetius melting point apparatus, while Krafft temperatures were determined according to the directions given in [47]. CMC is the minimum concentration above which micelles are formed in aqueous liquid. To obtain the CMC values, we used McGowan’s model. […] Molecular characteristic volumes (Vx) are found by the addition of the atomic characteristic volumes and the subtraction for the same factory (6.56 × 10^−6 m^3 mol^−1) for every covalent bond.

[2] = tested on: C. glabrata ATCC 90030; experiment: MIC90/MFC, EUCAST broth microdilution; format: cell-based, Candida glabrata; conditions: ATCC 90030
[3] = tested on: C. glabrata 2586 clinical strain; experiment: MIC90/MFC, EUCAST broth microdilution; format: cell-based, Candida glabrata
[4] = tested on: C. glabrata 2853 clinical strain; experiment: MIC90/MFC, EUCAST broth microdilution; format: cell-based, Candida glabrata
[5] = tested on: C. glabrata strains (ATCC 90030, 2586, 2853); experiment: MIC, statements for all tested strains together; format: cell-based, Candida glabrata; conditions: all the tested C. glabrata strains, AAB alone
[6] = tested on: C. glabrata 2586 biofilm; experiment: Biofilm eradication on polystyrene, fluorescence microscopy (Syto9/PI); format: cell-based, Candida glabrata; conditions: Nakaseomyces glabratus, 2586BIOFILM, 72 h, read-out: Biofilm Viability [%] 2586 Live; for viability at 1 µM: AAB alone 1 μM; for viability at 2 µM: AAB alone 2 μM; for viability at 3 µM: AAB alone 3 μM
Experimental: (§1) C. glabrata biofilm eradication on polystyrene surfaces was assessed according to the following procedure: 1 mL of C. glabrata culture, 10^6 CFU/mL in RMPI 1640 MOPS-buffered medium, was pipetted into the wells of a 48-well adherent plate. Cultures were incubated at 37 °C for 72 h with shaking (400 RPM). […] Non-treated cells were used as the control. This experiment was carried out in triplicate. The analysis of the biofilm eradication of C. glabrata strains on polystyrene surfaces was performed using fluorescence microscopy (FM). For further information, see Section 4.12. below.
(§2) The 72 h biofilm of C. glabrata strains on polystyrene surfaces was stained on 48-well adherent plates with 1 µL of propidium iodide (Ex λ = 543 nm/Em λ = 617 nm) and 1 µL of SYTO9 (Ex λ = 488 nm/Em λ = 503 nm) for 30 min using a LIVE/DEAD BacLight Bacterial Viability Kit (Thermo Fisher Scientific, Waltham, MA USA). Imaging was performed using a fluorescence microscope (FM) BX51 (Olympus, Tokyo, Japan) equipped with an Orca Flash 40 camera (Hamamatsu, Hamamatsu City, Japan) and 10× objective Plan APO. Scale bar = 100 µm. Detailed computer qualitative and quantitative analyses of the obtained pictures were performed by estimating the coverage area on the polystyrene plate (the percentage of the area occupied by the fungal biofilm). The cell viability analysis was performed by calculating the fluorescence intensity of the dyes (Syto9/PI) used. The acquired images were processed and analyzed using Fiji/ImageJ software ver. 1.53c (NIH, Bethesda, MD, USA). First, maximum intensity projections (MIPs) were obtained from stacks of images. The areas of the binary images were transferred into the original live and dead channel MIP images. The mean fluorescence intensities of all detected objects per field of view were calculated using ImageJ’s Analyze Threshold function (Software: ImageJ version 1.53 from Softonic).

[7] = tested on: C. glabrata 2853 biofilm; experiment: as above; format: cell-based, Candida glabrata; conditions: Nakaseomyces glabratus, 2853BIOFILM, 72 h, read-out: Biofilm Viability [%] 2853 Live; for viability at 1 µM: AAB alone 1 μM; for viability at 2 µM: AAB alone 2 μM; for viability at 3 µM: AAB alone 3 μM
Experimental: as §1, §2

[8] = tested on: C. glabrata ATCC 90030 biofilm; experiment: as above; format: cell-based, Candida glabrata; conditions: Nakaseomyces glabratus, ATCC90030, 72 h, read-out: Biofilm Viability [%] 90030 Live; for viability at 1 µM: AAB alone 1 μM; for viability at 2 µM: AAB alone 2 μM; for viability at 3 µM: AAB alone 3 μM
Experimental: as §1, §2

[9] = tested on: Balb/3T3 mouse embryonic fibroblasts; experiment: Cell proliferation assay (MTT test); format: cell-based; conditions: 24 h
Experimental: Balb/3T3 (ATCC CCL-163) mouse embryonic fibroblasts were cultured in DMEM medium supplemented with 10% fetal bovine serum, 1 mM L-glutamine, and a 1% penicillin/streptomycin solution and were used for our cytotoxicity studies. The cells were cultured at 37 °C and 5% CO2 until the cell density of 10^6 mL^−1 was obtained. Such cells were then seeded in 24-well tissue microplates (2 × 10^4 cells per well) and allowed to adhere overnight under the abovementioned conditions. Cytotoxicity tests were carried out on the cells prepared in this way.
The newly synthesized AABs (C9, C11, C13, and C15) were selected based on previous studies. They were analyzed at the concentrations of 0.25, 0.5, 1, 2, and 3 µM. […] The BALB-3T3 cells were treated with the prepared mixtures, dissolved in a complete cell culture medium, and then incubated for 24 h under the abovementioned conditions. Three independent replicates were performed for each combination of compounds.
The cytotoxic effect of the tested compounds in combination with β-AE was evaluated by measuring mitochondrial dehydrogenase activity using the MTT assay. After a 24 h incubation period, the medium supplemented with the 1mM MTT solution was added to each well. The cultures were continued for another 4 h under the conditions enriched with 5% CO2. After this time, the supernatant was collected, and MTT formazan was extracted from the cells using DMSO. The reaction was then stopped with Sörensen buffer (0.1 mol/L glycine; 0.1 mol/L NaCl; and pH 10.5). The percentage of cytotoxicity was calculated by comparing the absorbance values (λ = 560 nm) of the test sample to the control sample, which was untreated fibroblast cells. In the test performed, the negative control (C−) (sample not treated; PBS added) and positive control (C+) were fibroblast cells treated with 1% SDS [60].

[10] = tested on: C. glabrata ATCC 90030; experiment: FICI checkerboard, β-aescin with antifungal drugs; format: cell-based, Candida glabrata
[11] = tested on: C. glabrata 2586; experiment: FICI checkerboard, β-aescin with antifungal drugs; format: cell-based, Candida glabrata; conditions: combination with β-aescin
[12] = tested on: C. glabrata 2853; experiment: FICI checkerboard, β-aescin with antifungal drugs; format: cell-based, Candida glabrata
[13] = tested on: C. glabrata ATCC 90030; experiment: Interaction of AABs (3 µM) with antifungal agents, modified checkerboard; format: cell-based, Candida glabrata
[14] = tested on: C. glabrata 2586; experiment: as above; format: cell-based, Candida glabrata
[15] = tested on: C. glabrata 2853; experiment: as above; format: cell-based, Candida glabrata; conditions: for Multiplicity factor (MF) with C9: C9 3 µM
[16] = tested on: biofilms of C. glabrata DSM 1226 and two clinical isolates; set-up: method as in PMID 37508306; conditions: combination with β-AE; biofilms of three strains; ref [12]; cited from earlier work
[17] = Nakaseomyces glabratus, ATCC90030, read-out: MIC converted to
[18] = Nakaseomyces glabratus, read-out: MFC
[19] = Nakaseomyces glabratus, read-out: MIC90
[20] = C9 at constant 3 µM, dilutions in µg/mL
[21] = C11 at constant 3 µM, dilutions in µg/mL
[22] = C13 at constant 3 µM, dilutions in µg/mL
[23] = C15 at constant 3 µM, dilutions in µg/mL

## CCCCCCCCCCCC(=O)N(C)CCC[N+](C)(C)CC(=O)[O-] [C11]
[1]
  TK (Krafft temperature): ~5 °C
[2]; AAB alone
  MIC90: >3 µM/mL
[3]; AAB alone
  MIC90: >3 µM/mL
[4]; AAB alone
  MIC90: >3 µM/mL
[5]; [17]
  MIC: 1070 µg/mL (≈ 3 mM)
[5]
  MIC: 3 µM/mL
[6]
  viability at 1 µM: 4.54%
  viability at 2 µM: 4.45%
  viability at 3 µM: 3.49%
[7]
  viability at 1 µM: 37.2%
  viability at 2 µM: 3.06%
  viability at 3 µM: 7.34%
[8]
  viability at 1 µM: 32.6%
  viability at 2 µM: 3.96%
  viability at 3 µM: 2.14%
[9]; 1 µm/mL
  Cytotoxicity level: 85%

## CCCCCCCCCCCCCC(=O)N(C)CCC[N+](C)(C)CC(=O)[O-] [C13]
[1]
  TK (Krafft temperature): 20.5 °C
[2]; AAB alone
  MIC90: >3 µM/mL
[3]; AAB alone
  MIC90: >3 µM/mL
[4]; AAB alone
  MIC90: >3 µM/mL
[5]; [17]
  MIC: 1150 µg/mL (≈ 3 mM)
[5]
  MIC: 3 µM/mL
[6]
  viability at 1 µM: 4.56%
  viability at 2 µM: 4.57%
  viability at 3 µM: 12.9%
[7]
  viability at 1 µM: 11.6%
  viability at 2 µM: 4.98%
  viability at 3 µM: 14.2%
[8]
  viability at 1 µM: 1.96%
  viability at 2 µM: 6.55%
  viability at 3 µM: 2.26%
[9]; 2 µM/mL
  Cytotoxicity level: 85%

## CCCCCCCCCCCCCCCC(=O)N(C)CCC[N+](C)(C)CC(=O)[O-] [C15]
[1]
  TK (Krafft temperature): 36.4 °C
[2]; AAB alone
  MIC90: >3 µM/mL
[3]; AAB alone
  MIC90: >3 µM/mL
[4]; AAB alone
  MIC90: >3 µM/mL
[5]; [17]
  MIC: 1240 µg/mL (≈ 3 mM)
[5]
  MIC: 3 µM/mL
[6]
  viability at 1 µM: 6.07%
  viability at 2 µM: 2.33%
  viability at 3 µM: 6.23%
[7]
  viability at 1 µM: 63%
  viability at 2 µM: 17%
  viability at 3 µM: 6.64%
[8]
  viability at 1 µM: 41.9%
  viability at 2 µM: 28.8%
  viability at 3 µM: 41.4%
[9]; 0.25 µm/mL
  Decrease of viability: 15%
[9]; 0.5 µm/mL
  Decrease of viability: 28%

## OC(Cn1cncn1)(Cn1cncn1)c1ccc(F)cc1F [Fluconazole]
[2]; Nakaseomyces glabratus, ATCC90030, read-out: MFC
  MFC: 2050 µg/mL (≈ 6.69 mM)
[2]; Nakaseomyces glabratus, ATCC90030, read-out: MIC90
  MIC90: 2050 µg/mL (≈ 6.69 mM)
[3]; [18]
  MFC: 2050 µg/mL (≈ 6.69 mM)
[3]; [19]
  MIC90: 2050 µg/mL (≈ 6.69 mM)
[4]; [18]
  MFC: 2050 µg/mL (≈ 6.69 mM)
[4]; [19]
  MIC90: 32 µg/mL (≈ 0.104 mM)
[10]
  Type of interaction with β-AE (by FICI): synergistic
[10]; combination with β-aescin
  FICI: 0.25
[11]
  FICI: 1.25
[12]
  Type of interaction with β-AE (by FICI): additive
[12]; combination with β-aescin
  FICI: 0.75
[13]; C9 3 µM, |MF| = MIC90 alone/MIC90 with AAB
  Multiplicity factor (MF) with C9: 16
[13]; [20]
  MIC90 of antimycotic combined with C9: 128
[13]; C11 3 µM
  Multiplicity factor (MF) with C11: 64
[13]; [21]
  MIC90 of antimycotic combined with C11: 32
[13]; C13 3 µM
  Multiplicity factor (MF) with C13: 64
[13]; [22]
  MIC90 of antimycotic combined with C13: 32
[13]; C15 3 µM
  Multiplicity factor (MF) with C15: 64
[13]; [23]
  MIC90 of antimycotic combined with C15: 32
[14]; C9 3 µM
  Multiplicity factor (MF) with C9: 8
[14]; C11 3 µM
  Multiplicity factor (MF) with C11: 64
[14]; [21]
  MIC90 of antimycotic combined with C11: 32
[14]; C13 3 µM
  Multiplicity factor (MF) with C13: 64
[14]; [22]
  MIC90 of antimycotic combined with C13: 32
[14]; C15 3 µM
  Multiplicity factor (MF) with C15: 64
[14]; [23]
  MIC90 of antimycotic combined with C15: 32
[15]
  Multiplicity factor (MF) with C9: 1
[15]; listed as fluconazole
  Multiplicity factor (MF) with C9: did not interact
[15]; [20]
  MIC90 of antimycotic combined with C9: 32
[15]; C11 3 µM
  Multiplicity factor (MF) with C11: 2
[15]; [21]
  MIC90 of antimycotic combined with C11: 16
[15]; C13 3 µM
  Multiplicity factor (MF) with C13: 2
[15]; [22]
  MIC90 of antimycotic combined with C13: 16
[15]; C15 3 µM
  Multiplicity factor (MF) with C15: 16
[15]; [23]
  MIC90 of antimycotic combined with C15: 2
[16]
  FICI: ≤ 0.5
